Experimental data taken from patent publication USRE39096E1, “Treatment of skin disorders” (Hadasit Medical Research Services and Development Company …, priority 1997, dated 2006).
Where “and” joins values, the source holds several entries; their conditions need not be identical. Equal values may be shown once. Read-outs that look alike come from different tables or passages of the source.

How the values were obtained:
rats = test: Post-surgical abdominal adhesion formation in rats, Halofuginone in diet as pretreatment; assay type: in vivo, rat
Method: The experimental method was as follows. Halofuginone was administered in the diet of two groups of rats at a concentration of 5 mg/kg dry feed for 4 days before surgery, as a pretreatment. Two other groups of rats were fed a normal diet and served as control groups. One of the groups of rats fed Halofuginone and one control group then underwent surgery, which was performed as follows. First, the abdomen of the rats was shaved and prepared with iodine and alcohol. The abdominal cavity was entered through a mid-line incision. The small intestine was scraped from the duodenum down to from about 9 to about 10 cm from the cecum, until capillary bleeding occurred. To avoid drying, Hartman's solution at about 37 C. was occasionally dripped on the intestine. After replacement of the intestine into the abdominal cavity, the abdomen was closed in two layers with continuous 00 chromic catgut suture.
In those rats receiving the drug, Halofuginone treatment was continued for 21 days following surgery. At the end of 21 days, the rats were weighed and the number and severity of adhesions were determined according to a double-blind procedure, in which adhesions were classified according to the following grading: 0=no adhesions; I=a thin, filmy, easily separated adhesion; II=several thin adhesions; III=a thick, broad adhesion and IV=several thick adhesions. Clearly, 0 is the least severe and IV is the most severe grade.

keloid-derived cells = test: Collagen synthesis in keloid-derived cells ([3H]proline incorporation, collagenase digestion); assay type: cell-based, human; details: 24 hours incubation, FIG. 2
Method: A keloid, which had arisen in response to the piercing of the ear for insertion of an earring, was removed from the ear lobe of a person. The keloid tissue was sectioned so that histological studies could be performed. Briefly, the tissue samples were collected into phosphate-buffered saline (PBS) and fixed overnight in 4% paraformaldehyde in PBS at 4° C. Serial 5 um sections were prepared after the samples had been dehydrated in graded ethanol solutions, cleared in chloroform and embedded in Paraplast. Differential staining of collagenous and non-collagenous proteins was performed with 0.1% Sirius red and 0.1% fast green as a counter-stain in picric acid. This procedure stains collagen red [Gascon-Barre, M., et al., J. Histochem. Cytochem., Vol 37, p. 377-381, 1989].
The keloid was removed as described in Example 1 above. The keloid-derived cells were incubated with and without Halofuginone for 24 hours in 0.5 ml glutamine-free DMEM containing 5% FCS (Fetal Calf Serum), ascorbic acid (50 μg/ml), B-aminopropionitrile (50 μg/ml) and 2 μCi of [^3H]proline. At the end of incubation, the medium was decanted and the cells were incubated with or without collagenase for 18 hours, followed by precipitation of proteins by the addition of TCA (trichloroacetic acid). […]

[1] = test system: bovine corneal endothelial cells; test: Sulfate incorporation into ECM of cultured endothelial cells; assay type: cell-based; details: FIG. 3
Source text: (§1) As noted above, skin cell hyperproliferation is enabled by the deposition of ECM components. The following examples illustrate the ability of Halofuginone to inhibit such deposition of ECM components, further supporting the use of Halofuginone as a treatment for psoriasis. These examples illustrate the unexpected finding that Halofuginone completely abolishes deposition of all ECM components, and not just collagen, thereby preventing cell proliferation which is enabled by the formation of ECM. Cultures of bovine corneal endothelial cells were established from steer eyes and maintained as previously described [D. Gospodarowicz, et al., Exp. Eye Res., No. 25, pp. 75-99 (1977)]. Cells were cultured at 37° C. in 10% CO2 humidified incubators and the experiments were performed with early (3-8) cell passages.
(§2) For preparation of sulfate-labelled ECM (extra-cellular matrix), corneal endothelial cells were seeded into Swell plates at a confluent density forming, within 4-6 h, a contact inhibited cell monolayer composed of closely apposed, and growth arrested cells. […] To determine the total amount of sulfate labeled material, the ECM was digested with trypsin (25 μg/ml 24 h, 37° C.) and the solubilized material counted in a β-counter.

Rat mesengial cells = test: Sulfate and glycine incorporation into rat mesengial cell ECM; assay type: cell-based; details: for inhibition at 0.05 µg/mL / inhibition at 0.2 µg/mL: Rattus norvegicus; for inhibition at 0.05 µg/mL: 50 ng/ml Halofuginone; for inhibition at 0.2 µg/mL: 200 ng/ml Halofuginone
Method: Rat […] grown to confluency, 24 hours after seeding. The cells were then cultured with or without Halofuginone in the presence of either Na2^35SO4 (FIGS. 5A and 5B) or ^14C-glycine (FIGS. 5C and 5D). Eight days after seeding, the cell layer was dissolved to expose the underlying ECM, washed and digested with collagenase to determine the effect of Halofuginone on CDP proteins, as shown in FIGS. 5A and 5C. The remaining material was digested with trypsin and subjected to β-scintillation counting to determine the effect of Halofuginone on NCDP proteins, as shown in FIGS 5B and 5D.

[2] = test system: bovine corneal endothelial cells; test: Viability and morphology of confluent corneal endothelial cell monolayer; assay type: cell-based; details: growth arrested monolayer
Source text: as §1, §2

[3] = test system: bovine corneal endothelial cells; test: Incorporation of sulfate, proline, lysine and glycine into ECM of bovine corneal endothelial cells; assay type: cell-based; details: eight days after seeding
Method: Corneal endothelial cells were seeded at a confluent density and grown as described in Example 3 above. The cells were cultured with or without Halofuginone in the presence of either Na2^35SO4 (FIG. 4A), ^3H-proline (FIG. 4B), ^14C-lysine (FIG. 4C) or ^14C-glycine (FIG. 4D). Eight days after seeding, the cell layer was dissolved substantially as described in Example 3 above. The underlying ECM was then either trypsinized to determine the effect of Halofuginone on incorporation of labeled material into total protein, substantially as described in Example 3 above, or subjected to sequential digestions with collagenase and trypsin to evaluate the effect of Halofuginone on both collagenase-digestible proteins (CDP) and non-collagenase digestible proteins (NCDP).

For `O=C(CC1NCCCC1O)Cn1cnc2cc(Br)c(Cl)cc2c1=O` (centres unmarked) [Halofuginone], the “Adhesion Score” value (rats; individual rats, Group Number 2 (taken as surgery + Halofuginone 5 mg/kg dry feed, 4 days before and 21 days after surgery)) was 0-1 (3×) and 0 (3×) and 1 (2×) and 1-2 (2×), the “adhesions in rats without surgical intervention” value (rats; no surgery, Halofuginone in diet) was “None of the rats without surgical intervention” and the post-surgical adhesion formation (rats; rats with surgery, Halofuginone in diet 5 mg/kg dry feed) was “able to inhibit post-surgical adhesion formation”. The “production of collagen (collagenase-digestible [3H]proline-labelled proteins)” value (keloid-derived cells) was “inhibited the production of collagen”, the “production of non-collagenase digestible proteins” value (keloid-derived cells) was “not of non-collagenase digestible proteins” and the “inhibition of sulfate incorporation into ECM” value ([1]; 1 μg/ml Halofuginone) was “almost complete inhibition”. For the same compound, the inhibition at 0.2 µg/mL ([1]; Bos taurus, Endothelial cell, 0.2 μg/ml Halofuginone) was 50%, the “microscopic examination of denuded culture dishes (ECM layer)” value (Rat mesengial cells; ECM produced in the presence of Halofuginone) was “thin or non-existant layer of ECM” and the inhibition at 0.05 µg/mL (Rat mesengial cells; collagenase-digestible proteins, read-out: inhibition of glycine incorporation, CDP proteins) was about 80%. It also gave an inhibition at 0.05 µg/mL (Rat mesengial cells; non-collagenase digestible proteins, read-out: inhibition of glycine incorporation, NCDP proteins) of about 80%, an inhibition at 0.2 µg/mL (Rat mesengial cells; collagenase-digestible proteins, read-out: inhibition of sulfate incorporation, CDP proteins) of about 30% and an inhibition at 0.2 µg/mL (Rat mesengial cells; non-collagenase digestible proteins, read-out: inhibition of sulfate incorporation, NCDP proteins) of about 70%. The “concentration up to which cells remained viable and retained normal monolayer configuration and morphological appearance” value [2] was at most 2 μg/ml, the “incorporation of proline into ECM” value ([3]; 3H-proline, both CDP and NCDP, FIG. 4B) was “inhibited” and the “incorporation of glycine into ECM” value ([3]; 14C-glycine, both CDP and NCDP, FIG. 4D) was “inhibited”. The “incorporation of lysine into ECM” value ([3]; 14C-lysine, both CDP and NCDP, FIG. 4C) was “inhibited” and the “incorporation of sulfate into ECM” value ([3]; Na2 35SO4, both CDP and NCDP, FIG. 4A) was “inhibited”.
